For ten compounds, Kd and EC50 results are on record in ChEMBL document CHEMBL1125940 (Bioorg Med Chem Lett, 1991).

Molecules are shown by their SMILES. Positions of bridges follow the written chain, without caps; N, C: chain ends. Non-standard residues stand in square brackets, D forms with d. Residues, ends and D or L forms follow the SMILES beside them. Nle = CCCC[C@H](N)C(=O)O A value given as a limit tells only on which side of the number the result lay.

A word on the Kd: it is the concentration at which binding is half-saturated. Read a high Kd as lower affinity. The term EC50 denotes the midpoint of the concentration-response curve. Lower therefore signals a more potent agent.

The first experiment concerns the target T1, Endothelin-1 receptor (Rattus norvegicus, UniProt P26684).
T1 sequence (P26684 whole entry): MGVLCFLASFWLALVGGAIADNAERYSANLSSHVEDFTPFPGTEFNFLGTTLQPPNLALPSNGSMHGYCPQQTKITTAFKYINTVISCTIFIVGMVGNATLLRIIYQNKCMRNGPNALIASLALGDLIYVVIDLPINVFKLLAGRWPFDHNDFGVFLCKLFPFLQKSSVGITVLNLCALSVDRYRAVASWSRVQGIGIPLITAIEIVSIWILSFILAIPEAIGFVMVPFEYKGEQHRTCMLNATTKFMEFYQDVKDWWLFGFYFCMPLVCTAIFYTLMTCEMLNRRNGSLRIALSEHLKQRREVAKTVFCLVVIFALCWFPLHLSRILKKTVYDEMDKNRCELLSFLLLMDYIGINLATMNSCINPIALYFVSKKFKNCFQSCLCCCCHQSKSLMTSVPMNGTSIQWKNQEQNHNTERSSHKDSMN
The experiment can be described thus: Binding affinity towards Endothelin A receptor in A10 rat thoracic aorta smooth muscle cells using [125I]ET1 as radioligand.
`CC[C@H](C)[C@H](NC(=O)[C@H](CC(=O)O)NC(=O)[C@H](CC(C)C)NC(=O)[C@H](Cc1cnc[nH]1)NC(=O)[C@@H]1CSSC[C@H](N)C(=O)N[C@@H](CO)C(=O)N[C@H]2CSSC[C@H](NC(=O)[C@H](CCC(=O)O)NC(=O)[C@H](CCCCN)NC(=O)[C@H](CC(=O)O)NC(=O)[C@H](C)NC(=O)[C@H](C)NC(=O)[C@H](C)NC(=O)[C@H](C)NC2=O)C(=O)N[C@@H](C(C)C)C(=O)N[C@@H](Cc2ccc(O)cc2)C(=O)N[C@@H](Cc2ccccc2)C(=O)N1)C(=O)N[C@H](C(=O)N[C@@H](Cc1c[nH]c2ccccc12)C(=O)O)[C@@H](C)CC` (H-CSCAAAADKECVYFCHLDIIW-OH; disulfide 1-15, 3-11) displayed an equilibrium dissociation constant (Kd) of 130 nM.

Consider `CC[C@H](C)[C@H](NC(=O)[C@H](CC(=O)O)NC(=O)[C@H](CC(C)C)NC(=O)[C@H](Cc1c[nH]cn1)NC(=O)[C@@H]1CSSC[C@H](N)C(=O)N[C@@H](CO)C(=O)N[C@H]2CSSC[C@H](NC(=O)[C@H](CCC(=O)O)NC(=O)[C@H](CCCCN)NC(=O)[C@H](C)NC(=O)[C@H](CCSC)NC(=O)[C@H](CC(C)C)NC(=O)[C@H](CO)NC(=O)[C@H](CO)NC2=O)C(=O)N[C@@H](C(C)C)C(=O)N[C@@H](Cc2ccc(O)cc2)C(=O)N[C@@H](Cc2ccccc2)C(=O)N1)C(=O)N[C@H](C(=O)N[C@@H](Cc1c[nH]c2ccccc12)C(=O)O)[C@@H](C)CC` (H-CSCSSLMAKECVYFCHLDIIW-OH; disulfide 1-15, 3-11), for which the affinity, expressed as Kd, was 3070 nM.

For `CC[C@H](C)[C@H](NC(=O)[C@H](CC(=O)O)NC(=O)[C@H](CC(C)C)NC(=O)[C@H](Cc1cnc[nH]1)NC(=O)[C@@H]1CSSC[C@H](N)C(=O)N[C@@H](CO)C(=O)N[C@H]2CSSC[C@H](NC(=O)[C@H](CCC(=O)O)NC(=O)[C@H](CCCCN)NC(=O)[C@H](CC(=O)O)NC(=O)[C@H](CCSC)NC(=O)[C@H](CC(C)C)NC(=O)[C@H](CO)NC(=O)[C@H](CO)NC2=O)C(=O)N[C@@H](C(C)C)C(=O)N[C@@H](Cc2ccc(O)cc2)C(=O)N[C@@H](Cc2ccccc2)C(=O)N1)C(=O)N[C@@H](C)C(=O)N[C@@H](Cc1c[nH]c2ccccc12)C(=O)O` (H-CSCSSLMDKECVYFCHLDIAW-OH; disulfide 1-15, 3-11), the affinity, expressed as Kd, was 2.11 nM. Same read-out and setting: the same measure for `CSCC[C@@H]1NC(=O)[C@H](CC(C)C)NC(=O)[C@H](CO)NC(=O)[C@H](CO)NC(=O)[C@@H]2CSSC[C@H](NC(=O)[C@H](CCC(=O)O)NC(=O)[C@H](CCCCN)NC(=O)[C@H](CC(=O)O)NC1=O)C(=O)N[C@@H](C(C)C)C(=O)N[C@@H](Cc1ccc(O)cc1)C(=O)N[C@@H](Cc1ccccc1)C(=O)N[C@H](C(=O)N[C@@H](Cc1cnc[nH]1)C(=O)N[C@@H](CC(C)C)C(=O)N[C@@H](CC(=O)O)C(=O)N[C@@H](C)C(=O)N[C@@H](C)C(=O)N[C@@H](Cc1c[nH]c3ccccc13)C(=O)O)CSSC[C@H](N)C(=O)N[C@@H](CO)C(=O)N2` (H-CSCSSLMDKECVYFCHLDAAW-OH; disulfide 1-15, 3-11): 929 nM; for `CC[C@H](C)[C@H](NC(=O)[C@H](CC(=O)O)NC(=O)[C@H](CC(C)C)NC(=O)[C@H](Cc1c[nH]cn1)NC(=O)[C@@H]1CSSC[C@H](N)C(=O)N[C@@H](CO)C(=O)N[C@H]2CSSC[C@H](NC(=O)[C@H](CCC(=O)O)NC(=O)[C@H](CCCCN)NC(=O)[C@H](CC(=O)O)NC(=O)[C@H](CCSC)NC(=O)[C@H](CC(C)C)NC(=O)[C@H](CO)NC(=O)[C@H](CO)NC2=O)C(=O)N[C@@H](C(C)C)C(=O)N[C@@H](Cc2ccc(O)cc2)C(=O)N[C@@H](Cc2ccccc2)C(=O)N1)C(=O)N[C@H](C(=O)N[C@@H](C)C(=O)O)[C@@H](C)CC` (H-CSCSSLMDKECVYFCHLDIIA-OH; disulfide 1-15, 3-11): greater than 20000 nM. `CC[C@H](C)[C@H](NC(=O)[C@H](CC(=O)O)NC(=O)[C@H](CC(C)C)NC(=O)[C@H](Cc1c[nH]cn1)NC(=O)[C@@H]1CSSC[C@H](N)C(=O)N[C@@H](CO)C(=O)N[C@H]2CSSC[C@H](NC(=O)[C@H](CCC(=O)O)NC(=O)[C@H](CCCCN)NC(=O)[C@H](CC(=O)O)NC(=O)[C@H](CCSC)NC(=O)[C@H](CC(C)C)NC(=O)[C@H](CO)NC(=O)[C@H](CO)NC2=O)C(=O)N[C@@H](C(C)C)C(=O)N[C@@H](Cc2ccc(O)cc2)C(=O)N[C@@H](C)C(=O)N1)C(=O)N[C@H](C(=O)N[C@@H](Cc1c[nH]c2ccccc12)C(=O)O)[C@@H](C)CC` (H-CSCSSLMDKECVYACHLDIIW-OH; disulfide 1-15, 3-11) had a dissociation constant (Kd) of 646 nM. The compound `CC[C@H](C)[C@H](NC(=O)[C@H](CC(=O)O)NC(=O)[C@H](CC(C)C)NC(=O)[C@H](Cc1cnc[nH]1)NC(=O)[C@@H]1CSSC[C@H](N)C(=O)N[C@@H](CO)C(=O)N[C@H]2CSSC[C@H](NC(=O)[C@H](C)NC(=O)[C@H](CCCCN)NC(=O)[C@H](CC(=O)O)NC(=O)[C@H](CCSC)NC(=O)[C@H](CC(C)C)NC(=O)[C@H](CO)NC(=O)[C@H](CO)NC2=O)C(=O)N[C@@H](C(C)C)C(=O)N[C@@H](Cc2ccc(O)cc2)C(=O)N[C@@H](Cc2ccccc2)C(=O)N1)C(=O)N[C@H](C(=O)N[C@@H](Cc1c[nH]c2ccccc12)C(=O)O)[C@@H](C)CC` (H-CSCSSLMDKACVYFCHLDIIW-OH; disulfide 1-15, 3-11) showed a dissociation constant Kd of 188 nM.

The species named for the next experiment is Oryctolagus cuniculus. The experiment can be described thus: Effective concentration required for stimulation of vascular contraction tested in vitro using carotid arteries of New Zealand white rabbits. Format: functional.
In turn, `CC[C@H](C)[C@H](NC(=O)[C@H](CC(=O)O)NC(=O)[C@H](CC(C)C)NC(=O)[C@H](Cc1c[nH]cn1)NC(=O)[C@@H]1CSSC[C@H](N)C(=O)N[C@@H](C)C(=O)N[C@H]2CSSC[C@H](NC(=O)[C@H](CCC(=O)O)NC(=O)[C@H](CCCCN)NC(=O)[C@H](CC(=O)O)NC(=O)[C@H](CCSC)NC(=O)[C@H](CC(C)C)NC(=O)[C@H](CO)NC(=O)[C@H](CO)NC2=O)C(=O)N[C@@H](C(C)C)C(=O)N[C@@H](Cc2ccc(O)cc2)C(=O)N[C@@H](Cc2ccccc2)C(=O)N1)C(=O)N[C@H](C(=O)N[C@@H](Cc1c[nH]c2ccccc12)C(=O)O)[C@@H](C)CC` (H-CACSSLMDKECVYFCHLDIIW-OH; disulfide 1-15, 3-11) yielded a concentration giving a half-maximal response (EC50) of 38 nM. Same read-out and setting: with `CCCC[C@@H]1NC(=O)[C@H](CC(C)C)NC(=O)[C@H](CO)NC(=O)[C@H](CO)NC(=O)[C@H](C)NC(=O)[C@H](CO)NC(=O)[C@@H](N)CSSC[C@@H](C(=O)N[C@@H](Cc2c[nH]cn2)C(=O)N[C@@H](CC(C)C)C(=O)N[C@@H](CC(=O)O)C(=O)N[C@H](C(=O)N[C@H](C(=O)N[C@@H](Cc2c[nH]c3ccccc23)C(=O)O)[C@@H](C)CC)[C@@H](C)CC)NC(=O)[C@H](Cc2ccccc2)NC(=O)[C@H](Cc2ccc(O)cc2)NC(=O)[C@H](C(C)C)NC(=O)[C@H](C)NC(=O)[C@H](CCC(=O)O)NC(=O)[C@H](CCCCN)NC(=O)[C@H](CC(=O)O)NC1=O` (H-CSASSL[Nle]DKEAVYFCHLDIIW-OH; disulfide 1-15) the figure was 3.3 nM; with `CC[C@H](C)[C@H](NC(=O)[C@H](CC(=O)O)NC(=O)[C@H](CC(C)C)NC(=O)[C@H](Cc1c[nH]cn1)NC(=O)[C@@H]1CSSC[C@H](N)C(=O)N[C@@H](CO)C(=O)N[C@H]2CSSC[C@H](NC(=O)[C@H](CCC(=O)O)NC(=O)[C@H](CCCCN)NC(=O)[C@H](CC(=O)O)NC(=O)[C@H](CCSC)NC(=O)[C@H](CC(C)C)NC(=O)[C@H](CO)NC(=O)[C@H](CO)NC2=O)C(=O)N[C@@H](C(C)C)C(=O)N[C@@H](Cc2ccc(O)cc2)C(=O)N[C@@H](Cc2ccccc2)C(=O)N1)C(=O)N[C@H](C(=O)N[C@@H](Cc1c[nH]c2ccccc12)C(=O)O)[C@@H](C)CC` [ENDOTHELIN], 0.94 nM.
